# Reference: ChEMBL document CHEMBL1146756, “Studies on aromatic compounds: inhibition of calpain I by biphenyl derivatives and peptide-biphenyl hybrids” (Bioorg Med Chem Lett, 2004)
# Target: T1, Calpain small subunit 1 (Sus scrofa, UniProt P04574)
# T1 sequence (P04574 whole entry): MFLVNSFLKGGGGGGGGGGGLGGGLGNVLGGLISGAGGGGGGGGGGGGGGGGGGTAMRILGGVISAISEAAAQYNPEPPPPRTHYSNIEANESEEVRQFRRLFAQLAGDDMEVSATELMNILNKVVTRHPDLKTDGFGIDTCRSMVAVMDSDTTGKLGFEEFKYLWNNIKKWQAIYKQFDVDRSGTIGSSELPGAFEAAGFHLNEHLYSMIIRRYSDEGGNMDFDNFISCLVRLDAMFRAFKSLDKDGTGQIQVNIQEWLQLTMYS
# Test: Ability to displace labelledcasein from calpain I in porcine erythrocytes; Noninhibitor
# Type: cell-based
row,IC50,SMILES
1,No inhibition,COC(=O)[C@H](Cc1ccccc1)NC(=O)c1ccccc1-c1ccccc1C(=O)O
2,No inhibition,COC(=O)[C@H](Cc1ccc(O)cc1)NC(=O)c1ccccc1-c1ccccc1C(=O)N[C@@H](Cc1ccc(O)cc1)C(=O)OC
3,No inhibition,COC(=O)[C@H](Cc1c[nH]cn1)NC(=O)c1ccccc1-c1ccccc1C(=O)N[C@@H](Cc1c[nH]cn1)C(=O)OC
4,No inhibition,CCC(C)[C@H](NC(=O)c1ccccc1-c1ccccc1C(=O)N[C@H](C(=O)OC)C(C)CC)C(=O)OC (some centres not stated)
5,No inhibition,COC(=O)[C@H](C)NC(=O)c1ccccc1-c1ccccc1C(=O)N[C@@H](C)C(=O)OC

# Target: T1, Calpain small subunit 1
# Test: Ability to displace labelledcasein from calpain I in porcine erythrocytes; Weak inhibitor
# Type: cell-based
row,IC50,SMILES
1,Weak inhibitor,CNC(=O)[C@@H](Cc1ccccc1)NC(=O)[C@H](Cc1ccccc1)NC(=O)c1ccccc1-c1ccccc1C(=O)N[C@@H](CC(C)C)C(=O)N[C@@H](CCSC)C(=O)OC
2,Weak inhibitor,COC(=O)[C@H](Cc1ccc(O)cc1)NC(=O)c1ccccc1-c1ccccc1C(=O)N[C@@H](Cc1ccccc1)C(=O)N[C@@H](CCSC)C(=O)OC

# Target: not listed separately
# Test: Displacement of casein from calpain 1 in porcine erythrocytes
# Type: cell-based, Sus scrofa
row,SMILES,IC50 [µM]
1,COC(=O)[C@@H](NC(=O)[C@H](Cc1ccccc1)NC(=O)c1ccccc1-c1ccccc1C(=O)N[C@@H](Cc1ccccc1)C(=O)Nc1ccccc1-c1ccccc1NC(=O)[C@H](C)NC(=O)OCC1c2ccccc2-c2ccccc21)C(C)C,41
2,O=C(N[C@@H](Cc1ccc(O)cc1)C(=O)O)c1ccccc1-c1ccccc1C(=O)N[C@@H](Cc1ccc(O)cc1)C(=O)O,200
3,C=CCO[C@H]1O[C@H](CNC(=O)c2ccccc2-c2ccccc2C(=O)N[C@@H](Cc2ccc(O)cc2)C(=O)OC)C=C[C@@H]1CC(=O)N[C@@H](Cc1ccccc1)C(=O)N[C@@H](CC(C)C)C(=O)NC,116
4,COC(=O)[C@H](Cc1ccccc1)NC(=O)[C@H](Cc1ccccc1)NC(=O)c1ccccc1-c1ccccc1C(=O)N[C@@H](Cc1ccccc1)C(=O)N[C@@H](Cc1ccccc1)C(=O)OC,0.098
5,COC(=O)[C@H](Cc1ccccc1)NC(=O)[C@H](CCSC)NC(=O)c1ccccc1-c1ccccc1C(=O)N[C@@H](CCSC)C(=O)N[C@@H](Cc1c[nH]c2ccccc12)C(=O)OC,77
6,COC(=O)[C@@H](NC(=O)c1ccccc1-c1ccccc1C(=O)N[C@H](C(=O)OC)C(C)C)C(C)C,7

# Second part, the compound after the results:
row,IC50 [µM],SMILES
1,0.064,COC(=O)[C@H](Cc1ccccc1)NC(=O)c1ccccc1-c1ccccc1C(=O)N[C@@H](Cc1ccccc1)C(=O)OC
2,0.024,COC(=O)[C@H](Cc1ccccc1)NC(=O)[C@@H](NC(=O)c1ccccc1-c1ccccc1C(=O)N[C@H](C(=O)N[C@@H](Cc1ccccc1)C(=O)OC)C(C)C)C(C)C
3,0.037,COC(=O)[C@H](Cc1c[nH]c2ccccc12)NC(=O)c1ccccc1-c1ccccc1C(=O)N[C@@H](Cc1c[nH]c2ccccc12)C(=O)OC
4,0.07,O=C(N[C@@H](Cc1ccccc1)C(=O)O)c1ccccc1-c1ccccc1C(=O)N[C@@H](Cc1ccccc1)C(=O)O
